Measured values published in US7595327B2, “Beta-sulfonamide hydroxamic acid inhibitors of tace/matrix metalloproteinase” (priority 2005, dated 2009).
Like-named read-outs stand apart in the source and are kept apart here.

Columns and labels:
[1] = target: T1, TACE (catalytic domain of the recombinant TACE protein) (Homo sapiens, UniProt P78536); assay: TACE FRET assay using TACE Cat; type: biochemical; conditions: pro-TNF-α substrate peptide
T1 construct: The catalytic domain of the recombinant TACE protein was expressed and purified; made in house
T1 sequence (P78536 223-474 limits assumed): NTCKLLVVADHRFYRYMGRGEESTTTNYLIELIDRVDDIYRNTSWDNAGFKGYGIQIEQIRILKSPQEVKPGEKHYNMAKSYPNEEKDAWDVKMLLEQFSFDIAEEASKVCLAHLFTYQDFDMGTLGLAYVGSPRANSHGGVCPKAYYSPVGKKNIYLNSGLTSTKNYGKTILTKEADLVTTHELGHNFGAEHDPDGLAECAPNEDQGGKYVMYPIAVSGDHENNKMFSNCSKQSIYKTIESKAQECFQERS
Description: The procedure is essentially as described in Jin, G. et al., Analytical Biochemistry (2002) 302, 269-275, incorporated by reference herein in its entirety. […] K is the IC50. Generally, n and B are floated, noting that n (hill slope) should be close to 1 and B (background offset) to 0.
Pro-TNF-α substrate peptide Abz-[…]-Dpa (AnaSpec, San Jose, Calif., WARC-1) was prepared as a 2 mM stock solution in the TACE assay buffer (50 mM Tris-HCI, pH 7.4, 25 mM NaCl, 4% Glycerol, 0.005% Brij 35). The catalytic domain of the recombinant TACE protein was expressed and purified. The TACE protein (1 ug/ml) was pretreated with the inhibitors at various concentrations for 10 min at room temperature. The reaction was initiated by the addition of the substrate peptide. The increase in fluorescence was monitored at an Excitation of 320 nm and an Emission of 420 nm over a period of 10 min. The initial rate (slope) of the reaction was determined using a fluorescence plate reader (Molecular Devices, Spectra Max Gemini XS).

[2] = system: TNF-α secretion in Raw 264.7 cells; assay: Cell-based assay for inhibition of TNF-α secretion in Raw cells; conditions: Mus musculus, RAW264.7, LPS 100 ng/ml, 4 hr
Description: The basic measurement of the assay is the percentage of inhibition of TNF-α secretion and the IC50 determination by a fitting with the model-39 of LSW data analysis tool. […] Cells are split twice a week by scraping and 1 to 10 or 20 dilutions. For testing compounds, cells are cultured to confluence and are seeded the day before the experiment in 24 well culture dishes at 0.5 to 1 million/ml well. On the next morning, the medium from the overnight culture is replaced with the fresh growth medium. The compounds are added at various concentration at the 0.2% of final DMSO concentrations (10 μl of a 20% DMSO solution containing testing compounds is added to each well). The cells are pre-incubated with compounds for 1 hr. LPS (Sigma, L2262) is added to cells at a final concentration of 100 ng/ml (10 μl of a […] LPS solution freshly diluted from a 1 mg/ml LPS stock solution in PBS is added to each well) and cells are further incubated for 4 hr at 37° C. 1 ml of the supernatant was collected, cells are spun down and the supernatants are frozen at −80° C. until use. The TNF-α and other proinflammatory cytokines were detected by an ELISA assay according to the manufacturer's instructions (Biosource International, Inc., Camarillo, Calif. (For IL-1b measurement in Raw cells, one round of freeze and thaw of the cells was required).

recombinant human MMP-2 = target: T2, recombinant human MMP-2 (Homo sapiens, UniProt P08253); assay: In-vitro fluorescence assay of MMP-2 activity; type: biochemical
T2 sequence (P08253 110-660): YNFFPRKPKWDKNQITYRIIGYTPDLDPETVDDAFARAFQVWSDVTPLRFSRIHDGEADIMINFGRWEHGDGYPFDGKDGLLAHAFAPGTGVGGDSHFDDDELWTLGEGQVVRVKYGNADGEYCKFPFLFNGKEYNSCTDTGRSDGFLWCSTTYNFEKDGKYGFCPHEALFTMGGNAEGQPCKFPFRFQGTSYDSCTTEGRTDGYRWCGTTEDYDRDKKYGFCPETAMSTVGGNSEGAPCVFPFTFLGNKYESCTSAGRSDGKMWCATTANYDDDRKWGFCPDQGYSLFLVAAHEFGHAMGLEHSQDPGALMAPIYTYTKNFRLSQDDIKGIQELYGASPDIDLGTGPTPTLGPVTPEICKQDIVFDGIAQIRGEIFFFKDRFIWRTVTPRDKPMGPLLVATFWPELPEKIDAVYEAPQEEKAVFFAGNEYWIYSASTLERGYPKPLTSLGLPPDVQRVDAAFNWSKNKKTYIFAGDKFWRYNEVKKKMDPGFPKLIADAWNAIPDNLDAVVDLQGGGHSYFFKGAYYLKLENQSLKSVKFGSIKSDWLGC
Description: A continuous assay was used in which the substrate is a synthetic peptide containing a fluorescent group (7-methoxycoumarin; Mca) that is quenched by energy transfer to a 2,4-dinitrophenyl group. […] The substrate used was Mca-PQGL-(3-[2,4-dinitrophenyl]-L-2,3-diaminopropionyl)-AR-OH (denoted as Wammp-5, custom synthesized by AnaSpec, Inc.). The assay buffer consisted of 50 mM Hepes (pH 7.4), 100 mM NaCl, 5 mM CaCI2, and 0.005% Brij-35. Each well of black polystyrene 96-well plates contained a 200 μL reaction mixture consisting of assay buffer, purified MMP (final concentration of 25 ng/ml, prepared by diluting with the assay buffer), and varied concentrations of inhibitor (prepared by serially diluting a given inhibitor in DMSO in 96-well polypropylene plate). […] The enzymatic reactions were initiated by adding the substrate to a final concentration of 20 μM, and mixing 10 times with a pipette. The final DMSO concentration in the assay was 6.0%.
Plots of the inhibitor concentration vs. the percent inhibition were fit to the following equation: y=(a−d)/[1+(x/c)^b]+d, a general sigmoidal curve with Hill slope, a to d. x is the inhibitor concentration under test. y is the percent inhibition. a is the limiting response as x approaches zero. As x increases without bound, y tends toward its limit d. c is the inflection point (IC50) for the curve. That is, y is halfway between the lower and upper asymptotes when x=c. b is the slope factor or Hill coefficient.

MMP-13 = MMP-13 (Homo sapiens, UniProt P45452); assay: In-vitro fluorescence assay of MMP-13 activity; type: biochemical
Description: See Knight, C. […] […].
The method was essentially the same as for the determination of MMP-1 activity, described above, except that the final concentration of purified MMP in the assay was 0.5 nM, prepared by diluting with the assay buffer.

[3] = system: LPS-induced TNF-α secretion in human whole blood; assay: Human whole blood assay for LPS-induced TNF-α secretion; type: cell-based; conditions: Homo sapiens, LPS 100 ng/ml, read-out: TNF Secretion HWB IC50
Description: procedure is essentially as described in Newton, R. C., et al., (2001) Ann Rheum […]32, incorporated by reference herein in its entirety. The basic measurement of the assay is the percentage of inhibition of TNF-α secretion and the IC50 determination by a […] model-39 of LSW data analysis tool. 350 μl of fresh human blood drawn from healthy volunteers were pre-incubated with compounds for one hour at the various concentrations at 37° C. with turning generally, the final DMSO concentrations should be kept below 0.2%. At the end of cubation, LPS (Sigma, L2262) was added to the blood at 100 ng/ml and the samples were further incubated for 4 hours or overnight at 37° C. with constant rotation. At the end of the incubation period, 650 μl of serum-free medium was added to the blood samples and the samples were centrifuged at 1500 rpm for 15 minutes. 500 μl of supernate was collected and frozen at -80° C. The TNF-α and other proinflammatory cytokines were detected by ELISA assay according to the manufacturer's instruction (Biosource International, Inc., Camarillo, Calif.).

Compound | IC50 ([1]; FRET, read-out: TACE IC50) | IC50 [2] | IC50 (recombinant human MMP-2) | IC50 (MMP-13) | IC50 [3] | IC50 ([1]; TACE IC50, FRET)
Cc1cc(COc2ccc(S(=O)(=O)N[C@@H]3CCC[C@]3(C)C(=O)NO)cc2)c2ccccc2n1 [Example 55, (1S,2R)-N-hydroxy-1-methyl-2-[({4-[(2-methylquinolin4-yl)methoxy]phenyl}sulfonyl)amino]cyclopentanecarboxamide] | < 0.0006 µM | 0.27 µM | > 16.7 µM | > 16.7 µM | 5.9 µM | –
CN(C1C2CCC(C2)C1C(=O)NO)S(=O)(=O)c1ccc(OCc2ccc3ccccc3c2)cc1 (stereo in doubt) [Example 39, (1R,2S,3R,4S)-N-hydroxy-3-(methyl{[4-(2-naphthylmethoxy)phenyl]sulfonyl}amino)bicyclo[2.2.1]heptane-2-carboxamide] | 0.172 µM | – | – | – | – | –
Cc1cc(COc2ccc(S(=O)(=O)N[C@@H]3CNC[C@@H]3C(=O)NO)cc2)c2ccccc2n1 (relative stereo) [Example 22, cis-N-Hydroxy4-[({4-[(2-methylquinolin-4-yl)methoxy]phenyl}sulfonyl)amino]pyrrolidine-3-carboxamide] | – | 0.09 µM | > 16.7 µM | > 16.7 µM | 0.27 µM | –
Cc1cc(COc2ccc(S(=O)(=O)N(C)[C@H]3CCCC[C@@H]3C(=O)NO)cc2)c2ccccc2n1 (relative stereo) [Example 61, trans-N-hydroxy-2-[methyl({4-[(2-methylquinolin-4-yl)methoxy]phenyl}sulfonyl)amino]cyclohexanecarboxamide] | – | 0.911 µM | > 16.7 µM | > 16.7 µM | 43 µM | –
Cc1cc(COc2ccc(S(=O)(=O)N[C@H]3[C@@H](C(=O)NO)[C@@H]4CC[C@H]3O4)cc2)c2ccccc2n1 (relative stereo) [Example 2, exo-N-Hydroxy-3-[({4-[(2-methylquinolin-4-yl)methoxy]phenyl}sulfonyl)amino]-7-oxabicyclo[2.2.1]heptane-2-carboxamide] | 0.0022 µM | – | > 16.7 µM | > 16.7 µM | 9.9 µM | –
Cc1cc(COc2ccc(S(=O)(=O)N[C@H]3[C@@H](C(=O)NO)[C@H]4C=C[C@@H]3C4)cc2)c2ccccc2n1 (relative stereo) [Example 7, endo-N-Hydroxy-3-[({4-[(2-methylquinolin-4-yl)methoxy]phenyl}sulfonyl)amino]bicyclo[2.2.1]hept-5-ene-2-carboxamide] | 0.0012 µM | – | > 16.7 µM | > 16.7 µM | 34 µM | –
Cc1cc(COc2ccc(S(=O)(=O)N[C@@H]3[C@@H]4CC[C@@H](C4)[C@@H]3C(=O)NO)cc2)c2ccccc2n1 (relative stereo) [Example 6, endo-N-Hydroxy-3-[({4-[(2-methylquinolin-4-yl)methoxy]phenyl}sulfonyl)amino]bicyclo[2.2.1]heptane-2-carboxamide] | 0.001 µM | – | > 16.7 µM | > 16.7 µM | 47 µM | –
Cc1cc(COc2ccc(S(=O)(=O)N[C@H]3[C@@H](C(=O)NO)[C@@H]4C=C[C@H]3C4)cc2)c2ccccc2n1 (relative stereo) [Example 9, exo-N-Hydroxy-3-[({4-[(2-methylquinolin-4-yl)methoxy]phenyl}sulfonyl)amino]bicyclo[2.2.1] hept-5-ene-2-carboxamide] | 0.0001 µM | – | > 16.7 µM | > 16.7 µM | 9.3 µM | –
Cc1cc(COc2ccc(S(=O)(=O)NC3C4CCC(N4)C3C(=O)NO)cc2)c2ccccc2n1 (centres unmarked) [Example 38, 3-[4-(2-Methyl-quinolin-4-ylmethoxy)-benzenesulfonylamino]-7-aza-bicyclo[2.2.1]heptane-2-carboxylic acid hydroxyamide] | – | – | 8.68 µM | > 16.7 µM | 26 µM | 0.051 µM
Cc1cc(COc2ccc(S(=O)(=O)N[C@@H]3CC=CC[C@@H]3C(=O)NO)cc2)c2ccccc2n1 (relative stereo) [Example 10, cis-N-hydroxy-6-[({4-[(2-methylquinolin-4-yl)methoxy]phenyl}sulfonyl)amino]cyclohex-3-ene-1-carboxamide] | 0.0011 µM | – | > 16.7 µM | > 16.7 µM | 4.2 µM | –
CN(C1C2CCC(C2)C1C(=O)NO)S(=O)(=O)c1ccc(OCc2ccc3nonc3c2)cc1 (stereo in doubt) [Example 40, (1R,2S,3R,4S)-3-[{[4-(2,1,3-benzoxadiazol-5-ylmethoxy)phenyl]sulfonyl}(methyl)amino]-N-hydroxybicyclo[2.2.1]heptane-2-carboxamide] | 0.056 µM | – | – | – | – | –
Cc1cc(COc2ccc(S(=O)(=O)N[C@@H]3CCCC[C@@H]3C(=O)NO)cc2)c2ccccc2n1 (relative stereo) [Example 12, cis-N-hydroxy-2-[({4-[(2-methylquinolin-4-yl)methoxy]phenyl}sulfonyl)amino]cyclohexanecarboxamide] | – | 0.08 µM | > 16.7 µM | > 16.7 µM | 2.2 µM | –
Cc1cc(COc2ccc(S(=O)(=O)N(C)[C@H]3[C@@H](C(=O)NO)[C@H]4C=C[C@@H]3C4)cc2)c2ccccc2n1 (relative stereo) [Example 8, endo-N-Hydroxy-3-[methyl({4-[(2-methylquinolin-4-yl)methoxy]phenyl}sulfonyl)amino]bicyclo[2.2.1]hept-5-ene-2-carboxamide] | 0.0015 µM | – | > 16.7 µM | > 16.7 µM | > 50 µM | –
Cc1cc(COc2ccc(S(=O)(=O)N[C@@H]3CCC[C@]3(CO)C(=O)NO)cc2)c2ccccc2n1 [Example 58] | – | 0.44 µM | – | – | 14 µM | –
Cc1cc(COc2ccc(S(=O)(=O)NC3C(C(=O)NO)C4CCC3N4C(=O)OC(C)(C)C)cc2)c2ccccc2n1 (centres unmarked) [Example 37, tert-Butyl 2-[(hydroxyamino)carbonyl]-3-[({4-[(2-methylquinolin-4-yl)methoxy]phenyl}sulfonyl)amino]-7-azabicyclo[2.2.1]heptane-7-carboxylate] | – | – | > 16.7 µM | > 16.7 µM | 59 µM | 0.01 µM
